Reference: US20090012103A1, “SUBSTITUTED HETEROCYCLIC COMPOUNDS” (priority 2007, published 2009)

What was measured:
[1] = target: T1, wild-type human cardiac sodium channel, hNav1.5 (Homo sapiens, UniProt Q14524); assay: Late INa screening assay (late sodium current, PatchXpress whole cell patch clamp); assay type: cell-based; conditions: compound at 10 μM; for inhibition at 10 µM: read-out: Late INa % blk
[2] = target: T1, wild-type human cardiac sodium channel, hNav1.5; assay: Peak INa screening assay (tonic block TB and use-dependent block UDB of peak sodium current); assay type: cell-based; conditions: tonic block; compound at 10 μM; read-out: Tonic Peak INa % blk
Protocol: The late sodium current (Late INa) and peak sodium current (Peak INa) assays are performed on an automated electrophysiology platform, PatchXpress 7000A (MDS Analytical Technologies, Sunnyvale, Calif.), which uses the whole cell patch clamp technique to measure currents through the cell membrane of up to 16 cells at a time. The assay uses an HEK293 (human embryonic kidney) cell line heterologously expressing the wild-type human cardiac sodium channel, hNav1.5, purchased from Millipore (Billerica, Mass.). No beta subunits were coexpressed with the Na channel alpha subunit. […] Experiments are carried out at 24-27° C.
For both the Late INa and Peak INa assays, series resistance compensation is set to 50% and whole-cell compensation is performed automatically. […] Currents through open sodium channels are automatically recorded and stored in the DataXpress2 database (MDS Analytical Technologies, Sunnyvale, Calif.). Analysis is performed using DataXpress2 analysis software and data are compiled in Excel.
Compound stocks are routinely made in glass vials to 10 mM in dimethyl sulfoxide (DMSO). In some cases, when compounds are not soluble in DMSO, they are made in 100% ethanol. Stocks are sonicated as necessary. The extracellular solution for screening Late INa is composed of: 140 mM NaCl, 4 mM KCl, 1.8 mM CaCl2, 0.75 mM MgCl2, and 5 mM HEPES with pH adjusted to 7.4 using NaOH. The extracellular solution for screening Peak INa is composed of: 20 mM NaCl, 120 mM N-methyl-D glucamine, 4 mM KCl, 1.8 mM CaCl2, 0.75 mM MgCl2, and 5 mM HEPES with pH adjusted to 7.4 using HCl. The intracellular solution used to perfuse the inside of the cells for both the Late INa and Peak INa assays contains: 120 mM CsF, 20 mM CsCl, 5 mM EGTA, 5 mM HEPES and pH adjusted to 7.4 with CsOH. Compounds are diluted in extracellular solution to 10 μM in glass vials and then transferred to glass well plates before robotic addition to the cells. The 0 Na extracellular solution used at the end of each experiment for the Late INa and Peak INa assays to measure baseline current contains: 140 mM N-methyl-D-glucamine; 4 mM KCl; 1.8 mM CaCl2; 0.75 mM MgCl2; 5 mM HEPES and pH was adjusted to 7.4 with HCl.
Compounds were also evaluated for their effect in several other assays, including their effect on Peak INa. In some cases, the effect on Peak INa was measured using data from the Late INa assay. […] Since the peak INa can be very large, introducing artifacts in the recording, the concentration of Na^+ in the bath is reduced to 20 mM and a nonpermeant cation is added to compensate for the Na^+ that was omitted from the standard extracellular solution (see above). The peak INa assay uses a holding potential of −100 mV and a 20 ms test pulse to 0 mV to activate the channel. As in the Late INa assay, stepping the voltage to 0 mV causes a rapid increase in negative Na current through hNav1.5 that inactivates within a few ms. No late INa activator is added for the peak assay.
For the separate peak INa assay, both tonic (TB) block and use-dependent (UDB) block of peak inward sodium current by 10 μM compound are determined. TB is block of the channel in the resting state, before the channel opens. TB is simulated in this assay by stimulating the channel to open at a low frequency (0.1 Hz). This is done in order to measure the control current amplitude and monitor current rundown, enabling correction for rundown in the calculation of percent block for TB.

hERG potassium channel = hERG potassium channel (Homo sapiens, UniProt Q12809); assay: hERG screening assay (PatchXpress patch clamp, CHO cell line)
hERG potassium channel, sequence (Q12809 whole entry): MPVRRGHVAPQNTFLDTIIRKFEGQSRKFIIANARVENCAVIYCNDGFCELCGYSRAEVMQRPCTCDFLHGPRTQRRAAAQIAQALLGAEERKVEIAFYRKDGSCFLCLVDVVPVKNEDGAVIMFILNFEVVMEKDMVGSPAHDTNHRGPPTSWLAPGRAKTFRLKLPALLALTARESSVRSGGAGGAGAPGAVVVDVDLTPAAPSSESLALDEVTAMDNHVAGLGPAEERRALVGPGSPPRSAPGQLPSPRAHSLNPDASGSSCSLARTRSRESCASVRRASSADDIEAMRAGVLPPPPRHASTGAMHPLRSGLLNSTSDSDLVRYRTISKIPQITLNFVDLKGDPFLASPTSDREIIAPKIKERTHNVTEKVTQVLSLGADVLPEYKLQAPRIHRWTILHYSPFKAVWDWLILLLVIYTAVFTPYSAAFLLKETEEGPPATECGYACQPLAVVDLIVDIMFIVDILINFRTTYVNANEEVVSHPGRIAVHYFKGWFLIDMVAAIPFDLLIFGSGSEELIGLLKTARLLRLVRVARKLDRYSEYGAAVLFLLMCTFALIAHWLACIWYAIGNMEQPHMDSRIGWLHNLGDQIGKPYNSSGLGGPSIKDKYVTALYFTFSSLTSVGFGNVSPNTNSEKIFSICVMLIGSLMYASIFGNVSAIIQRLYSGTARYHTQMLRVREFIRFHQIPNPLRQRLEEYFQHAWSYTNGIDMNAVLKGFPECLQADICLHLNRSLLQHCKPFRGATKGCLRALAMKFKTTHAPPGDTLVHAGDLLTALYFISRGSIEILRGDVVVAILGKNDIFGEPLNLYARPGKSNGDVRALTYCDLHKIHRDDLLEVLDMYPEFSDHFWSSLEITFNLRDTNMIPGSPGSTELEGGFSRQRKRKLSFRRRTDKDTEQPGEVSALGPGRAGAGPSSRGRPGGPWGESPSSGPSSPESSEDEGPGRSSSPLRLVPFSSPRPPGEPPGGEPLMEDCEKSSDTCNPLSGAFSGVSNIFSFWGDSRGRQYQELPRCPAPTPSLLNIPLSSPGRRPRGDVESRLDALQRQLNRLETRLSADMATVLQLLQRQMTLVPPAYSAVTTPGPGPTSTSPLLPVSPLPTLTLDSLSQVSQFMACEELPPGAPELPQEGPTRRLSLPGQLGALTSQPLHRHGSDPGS

T1 sequence (Q14524 whole entry): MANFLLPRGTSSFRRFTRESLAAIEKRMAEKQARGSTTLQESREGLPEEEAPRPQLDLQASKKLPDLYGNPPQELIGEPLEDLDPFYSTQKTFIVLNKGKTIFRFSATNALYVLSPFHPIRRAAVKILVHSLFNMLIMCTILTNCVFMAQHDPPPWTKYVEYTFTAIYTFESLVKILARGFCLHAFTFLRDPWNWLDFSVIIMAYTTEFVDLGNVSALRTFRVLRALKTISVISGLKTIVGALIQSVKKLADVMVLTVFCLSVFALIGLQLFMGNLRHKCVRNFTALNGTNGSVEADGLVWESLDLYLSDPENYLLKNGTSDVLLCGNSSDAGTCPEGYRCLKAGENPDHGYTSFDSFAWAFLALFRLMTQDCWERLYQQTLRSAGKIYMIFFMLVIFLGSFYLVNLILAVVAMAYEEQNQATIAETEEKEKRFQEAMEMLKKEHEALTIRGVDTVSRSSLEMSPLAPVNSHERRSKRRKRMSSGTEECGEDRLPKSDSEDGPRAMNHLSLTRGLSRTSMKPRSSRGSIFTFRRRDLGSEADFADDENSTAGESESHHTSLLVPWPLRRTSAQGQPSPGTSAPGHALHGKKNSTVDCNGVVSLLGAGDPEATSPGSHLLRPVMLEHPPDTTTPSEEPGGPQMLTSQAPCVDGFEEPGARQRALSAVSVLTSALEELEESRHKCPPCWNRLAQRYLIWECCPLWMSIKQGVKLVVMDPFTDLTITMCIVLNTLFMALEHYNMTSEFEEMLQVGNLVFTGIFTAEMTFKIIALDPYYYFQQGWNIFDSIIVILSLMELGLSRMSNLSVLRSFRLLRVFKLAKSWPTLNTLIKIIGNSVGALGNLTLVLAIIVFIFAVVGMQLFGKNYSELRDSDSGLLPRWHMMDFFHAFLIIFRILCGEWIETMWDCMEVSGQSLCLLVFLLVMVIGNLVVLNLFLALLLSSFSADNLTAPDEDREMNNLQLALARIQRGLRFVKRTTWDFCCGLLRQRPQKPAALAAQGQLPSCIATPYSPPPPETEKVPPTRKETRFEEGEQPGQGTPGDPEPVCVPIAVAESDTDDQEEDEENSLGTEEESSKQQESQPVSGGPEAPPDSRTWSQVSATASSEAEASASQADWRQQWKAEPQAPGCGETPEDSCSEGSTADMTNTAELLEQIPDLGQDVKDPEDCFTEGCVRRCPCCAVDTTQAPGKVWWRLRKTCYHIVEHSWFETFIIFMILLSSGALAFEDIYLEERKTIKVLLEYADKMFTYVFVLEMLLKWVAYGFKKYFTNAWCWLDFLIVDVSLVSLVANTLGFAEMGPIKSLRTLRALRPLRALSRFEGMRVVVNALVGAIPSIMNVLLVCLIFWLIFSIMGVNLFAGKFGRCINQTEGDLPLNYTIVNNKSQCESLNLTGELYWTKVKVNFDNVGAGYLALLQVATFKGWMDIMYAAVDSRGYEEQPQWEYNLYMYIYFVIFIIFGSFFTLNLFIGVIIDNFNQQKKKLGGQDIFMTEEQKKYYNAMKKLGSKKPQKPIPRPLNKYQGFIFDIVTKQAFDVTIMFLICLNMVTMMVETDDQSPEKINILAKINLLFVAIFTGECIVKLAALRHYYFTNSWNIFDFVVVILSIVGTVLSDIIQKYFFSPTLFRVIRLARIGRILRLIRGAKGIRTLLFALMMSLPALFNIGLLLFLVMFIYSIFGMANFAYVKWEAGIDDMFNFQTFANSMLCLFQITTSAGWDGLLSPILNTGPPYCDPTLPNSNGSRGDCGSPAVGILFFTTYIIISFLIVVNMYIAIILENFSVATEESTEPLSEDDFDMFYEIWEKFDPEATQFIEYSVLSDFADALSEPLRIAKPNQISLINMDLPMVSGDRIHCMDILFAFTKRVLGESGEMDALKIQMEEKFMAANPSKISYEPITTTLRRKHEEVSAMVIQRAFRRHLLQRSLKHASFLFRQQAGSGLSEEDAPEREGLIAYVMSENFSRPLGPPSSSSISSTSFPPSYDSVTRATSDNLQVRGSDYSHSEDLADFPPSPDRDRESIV

Row | Compound | inhibition at 10 µM [1] [%] | inhibition at 10 µM [2] [%] | hERG Patch Clamp hERG % blk (hERG potassium channel; 1 μM) [%] | hERG Patch Clamp hERG % blk (hERG potassium channel; 10 μM) [%] | Late INa % blk [1] [%]
1 | CC1=C(C(=O)OCC(F)(F)F)C(c2cccc3ccccc23)n2nnnc2N1 (stereo not shown) [PT-014, 2,2,2-trifluoroethyl 5-methyl-7-(naphthalen-1-yl)-4,7-dihydrotetrazolo[1,5-a]pyrimidine-6-carboxylate] | 50.9 | 9 |  |  | 
2 | CC1=C(C(=O)O[C@@H](C)c2ccccc2)C(c2cccc3ccccc23)n2nnnc2N1 (stereo partly drawn) [PT-048, (S)-1-phenylethyl 5-methyl-7-(naphthalen-1-yl)-4,7-dihydrotetrazolo[1,5-a]pyrimidine-6-carboxylate] | 90.8 | 58.6 |  |  | 
3 | CC1=C(C(=O)OCc2ccccc2)C(c2ccccc2N2CCCCC2)n2nnnc2N1 (stereo not shown) [PT-342, benzyl 5-methyl-7-(2-(piperidin-1-yl)phenyl)-4,7-dihydrotetrazolo[1,5-a]pyrimidine-6-carboxylate] | 80.1 |  | 10.0 | 47.5 | 
4 | CC1=C(C(=O)OCc2ccccc2)C(c2nccs2)n2nccc2N1 (stereo not shown) [PT-363, benzyl 5-methyl-7-(thiazol-2-yl)-4,7-dihydropyrazolo[1,5-a]pyrimidine-6-carboxylate] | 40.9 |  | 10.0 | 19.5 | 
5 | CC1=C(C(=O)OCc2ccccc2)C(c2nccs2)n2nnnc2N1 (stereo not shown) [PT-364, benzyl 5-methyl-7-(thiazol-2-yl)-4,7-dihydrotetrazolo[1,5-a]pyrimidine-6-carboxylate] | 25.8 |  | 10.0 | 17.5 | 
6 | CC1=C(C(=O)OCc2ccccc2)C(c2ccccc2-c2ccc(NS(C)(=O)=O)cc2)c2cn[nH]c2N1 (stereo not shown) [PT-366, benzyl 6-methyl-4-(4′-(methylsulfonamido)biphenyl-2-yl)-4,7-dihydro-1H-pyrazolo[3,4-b]pyridine-5-carboxylate] | 87.8 |  | 28.0 | 92.0 | 
7 | CCS(=O)(=O)N1CCN(c2cccc(OC)c2C2C(C(=O)OCc3ccccc3)=C(C)Nc3nnnn32)CC1 (stereo not shown) [PT-378, benzyl 7-(2-(4-(ethylsulfonyl)piperazin-1-yl)-6-methoxyphenyl)-5-methyl-4,7-dihydrotetrazolo[1,5-a]pyrimidine-6-carboxylate] | 42 |  | 10.0 | 41.5 | 
8 | CC1=C(C(=O)OCc2ccccc2)C(c2c(Br)sc3ccccc23)n2nnnc2N1 (stereo not shown) [PT-386, benzyl 7-(2-bromobenzo[b]thiophen-3-yl)-5-methyl-4,7-dihydrotetrazolo[1,5-a]pyrimidine-6-carboxylate] | 79.2 |  | 10.0 | 16.5 | 
9 | CC1=C(C(=O)OCc2ccccc2)C(c2occc2-c2ccc(F)cc2)n2nnnc2N1 (stereo not shown) [PT-396, benzyl 7-(3-(4-fluorophenyl)furan-2-yl)-5-methyl-4,7-dihydrotetrazolo[1,5-a]pyrimidine-6-carboxylate] | 80.7 |  | 10.0 | 32.0 | 
10 | CC1=C(C(=O)OCc2ccccc2)C(c2sccc2-c2ccc(F)cc2)n2nnnc2N1 (stereo not shown) [PT-397, benzyl 7-(3-(4-fluorophenyl)thiophen-2-yl)-5-methyl-4,7-dihydrotetrazolo[1,5-a]pyrimidine-6-carboxylate] | 69.1 |  | 10.0 | 25.0 | 
11 | CC1=C(C(=O)OCc2ccccc2)C(c2ccc(N(C)C)cc2[N+](=O)[O-])n2nnnc2N1 (stereo not shown) [PT-409, benzyl 7-(4-(dimethylamino)-2-nitrophenyl)-5-methyl-4,7-dihydrotetrazolo[1,5-a]pyrimidine-6-carboxylate] | 43.1 |  | 27.0 | 78.5 | 
12 | CC(=O)c1ccc(-c2ccccc2C2C(C(=O)OCc3ccccc3)=C(C)Nc3nnnn32)cc1 (stereo not shown) [PT-415, benzyl 7-(4′-acetylbiphenyl-2-yl)-5-methyl-4,7-dihydrotetrazolo[1,5-a]pyrimidine-6-carboxylate] | 75.4 |  | 10.5 | 38.5 | 
13 | CCOC(=O)C1=C(C)Nc2c(c(C)nn2C)C1c1cccc2ccccc12 (stereo not shown) [PT-440, ethyl 1,3,6-trimethyl-4-(naphthalen-1-yl)-4,7-dihydro-1H-pyrazolo[3,4-b]pyridine-5-carboxylate] | 42.8 |  | 12.0 | 48.0 | 
14 | CCOC(=O)C1=C(C)Nc2[nH]ncc2C1c1ccccc1Br (stereo not shown) [PT-448, ethyl 4-(2-bromophenyl)-6-methyl-4,7-dihydro-1H-pyrazolo[3,4-b]pyridine-5-carboxylate] | 33.6 |  | 10.0 | 57.5 | 
15 | CCOC(=O)C1=C(C)Nc2nnnn2C1c1ccccc1-n1ccnc1C.Cl (stereo not shown) [PT-457, ethyl 5-methyl-7-(2-(2-methyl-1H-imidazol-1-yl)phenyl)-4,7-dihydrotetrazolo[1,5-a]pyrimidine-6-carboxylate hydrochloride] | 12.6 |  | 10.0 | 21.0 | 
16 | CCOC(=O)C1=C(C)Nc2nnnn2C1c1ccccc1-n1ccnc1.Cl (stereo not shown) [PT-476, ethyl 7-(2-(1H-imidazol-1-yl)phenyl)-5-methyl-4,7-dihydrotetrazolo[1,5-a]pyrimidine-6-carboxylate hydrochloride] | 2.6 |  | 17.5 | 23.0 | 
17 | CCOC(=O)C1=C(C)Nc2nnnn2C1c1ccccc1-n1cccn1.Cl (stereo not shown) [PT-477, ethyl 7-(2-(1H-pyrazol-1-yl)phenyl)-5-methyl-4,7-dihydrotetrazolo[1,5-a]pyrimidine-6-carboxylate hydrochloride] | 6.2 |  | 12.0 | 44.0 | 
18 | CCOC(=O)C1=C(C)Nc2nnnn2C1c1ccccc1-c1cccc(-c2nnn[nH]2)c1 (stereo not shown) [PT-493, ethyl 7-(3′-(1H-tetrazol-5-yl)biphenyl-2-yl)-5-methyl-4,7-dihydrotetrazolo[1,5-a]pyrimidine-6-carboxylate] | 0.5 |  | 10.0 | 10.0 | 
19 | COC(=O)C1=C(C)Nc2nnnn2C1c1cccc2ccccc12 (stereo not shown) [PT-512, methyl 5-methyl-7-(naphthalen-1-yl)-4,7-dihydrotetrazolo[1,5-a]pyrimidine-6-carboxylate] | 26.6 |  | 10.5 | 14.0 | 
20 | H-furo[3,4-e]pyrazolo[3,4-b]pyridin-5(4H)-one [PT-079] |  |  | 57.5 | 96.5 | 49.0
